Results taken from EP0728012B1, “NOVEL GnRH ANALOGUES WITH ANTITUMOUR EFFECTS AND PHARMACEUTICAL COMPOSITIONS THEREOF” (Lovas, Sandor, priority 1994, dated 1996).

Assays:
Ishikawa = settings: 30 µM active substance, conjugate, treated once
[1] = system: cytosolic progesterone receptor (cPgR); settings: animals bearing MCF-7 xenografts
MCF-7 xenograft = assay: In vivo antitumour effect on MCF-7 xenograft in immunosuppressed mice; design: species or system CBA/Ca mice; settings: for Tumour volume as control (%): conjugates 1 x 50 µg; for Inhibition % (tumour growth): daily s.c.
Experimental: The immunosuppression of mice was carried out by using the method of Steel et al. [Br. J. Cancer, 37, 224-230 (1978)]. Immunosuppression and xeno-transplantation
CBA-Ca female mice of about 6 weeks old were thymectomized and then, after one week, they were irradiated with 60Co (whole body irradiation; the lethal dose is 9.5 Gray). Within 24 hours 3 to 5 x 10^5 myelocytes were injected into the animals. Beneath the skin of the immunosuppressed mice 2 x 10^7 tumour cells or, in the case of later passages, […] were implanted. […] The treatment with steroid hormone was stopped by at least one week before beginning the investigation.
In the case of MCF-7 tumours (xenografts) the examinations were carried out with passages being in the phase of the 37th and 38th, respectively, transplantations.
In the case of mice bearing MCF-7 xenograft, the treatment was begun in the 4th week following xeno-transplantation.
Recent investigations have begun on 28 animals bearing MCF-7 xenograft and on 28 animals bearing MDA-MB-231 xenograft. On animals bearing MCF-7 tumour the treatment was commenced in the 5th week following xeno-transplantation; the tumour volume was 205 to 225 mm^3. On animals bearing MDA-MB-231 tumour, the treatment was started in the 4th week after xeno-transplantation with a tumour volume of 140 to 150 mm^3. […] The control groups were daily treated with physiological saline s.c. (Each treated group consisting of 7 animals).

MXT mouse mammary tumour = assay: In vivo antitumour effect on mice bearing MXT mouse mammary tumour; design: species or system CBA/Ca mice
MDA-MB-231 xenograft = assay: In vivo antitumour effect on MDA-MB-231 xenograft in immunosuppressed mice; design: species or system CBA/Ca mice
Procedure, shortened: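 Female CBA-Ca mice thymectomized, whole-body 60Co-irradiated a week later, given 3 to 5 x 10^5 myelocytes within 24 h, then implanted s.c. with MDA-MB-231 cells or tumour pieces. Treatment began in week 4 or 5 post-implant at 140-150 mm^3 or 0.165-0.194 cm^3; 7 animals per group, controls daily s.c. saline.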

[2] = system: MDA-MB-231 human mammary carcinoma cell line; assay: Inhibition of colony formation (dose-survival relation, Example 18); type: cell-based
[3] = system: Ishikawa human endometrium carcinoma cell line; assay: as above; type: cell-based
[4] = system: PC3 human prostate carcinoma cell line; assay: as above; type: cell-based
[5] = system: MCF-7 human mammary carcinoma cell line; assay: as above; type: cell-based; settings: treated once
[6] = after 6 week treatment, xenograft not given
[7] = MXT mouse mammary tumour, Treatment weeks: 13, 1x75 µg daily s.c.
[8] = MXT mouse mammary tumour, Treatment weeks: 20, 1x75 µg daily s.c.
[9] = Table V, treatment week 2, conjugates 1x50 µg daily s.c.
[10] = Table V, treatment week 6, MI-1892 2x25 µg, conjugates 1x50 µg daily s.c.
[11] = week 0, daily s.c., P-GFLG-1544 1 x 50 µg, P-GFLG-1892 1 x 75 µg
[12] = week 1, daily s.c., P-GFLG-1544 1 x 50 µg, P-GFLG-1892 1 x 75 µg
[13] = week 2, daily s.c., P-GFLG-1544 1 x 50 µg, P-GFLG-1892 1 x 75 µg
[14] = week 3, daily s.c., P-GFLG-1544 1 x 50 µg, P-GFLG-1892 1 x 75 µg
[15] = week 4, daily s.c., P-GFLG-1544 1 x 50 µg, P-GFLG-1892 1 x 75 µg
[16] = week 5, daily s.c., P-GFLG-1544 1 x 50 µg, P-GFLG-1892 1 x 75 µg
[17] = week 6, daily s.c., P-GFLG-1544 1 x 50 µg, P-GFLG-1892 1 x 75 µg

In the case of “Ac-D-Trp^1,3,D-Cpa^2, {Lys[n-poly(N-vinyl pyrrolidone-co-maleic acid)-Gly-Phe-Leu-Gly-]}^5, [a-Asp(DEA)]^6, D-Ala^10-GnRH [P-GFLG-1892]”, the “% Inhibition of cell division (proliferation)” value (Ishikawa) is reported as 91%, the “decrease of the uterus cPgR level” value [1] is reported as 23% and the “rate of tumour growth” value (MCF-7 xenograft; MCF-7 xenograft, first study, conjugates 150 µg in every 3rd day, P-GFLG-OH daily s.c.) is reported as “not influenced”. For the same substance, the “decrease in the tumour volume in comparison to controls” value (MCF-7 xenograft; MCF-7 xenograft, first study, end of 4th week, MI-1892 2 x 25 µg daily, conjugates 50 µg daily once) was 30%, the tumour volume (MCF-7 xenograft; MCF-7 xenograft, 4th week of treatment) was 2.428 cm^3 and the “Tumour volume as control (%)” value (MCF-7 xenograft; MCF-7 xenograft, treatment week 2) was 70%. The “Inhibition % (tumour growth)” value (MCF-7 xenograft; MCF-7 xenograft, treatment week 2, listed as 5. P-GFLG-1892) was 30%, the “Inhibition % (tumour growth)” value (MCF-7 xenograft; MCF-7 xenograft, treatment week 4) was 37% and the “Tumour volume as control (%)” value (MCF-7 xenograft; MCF-7 xenograft, treatment week 6, MI-1892 2 x 25 µg) was 57%. The “Inhibition % (tumour growth)” value (MCF-7 xenograft; MCF-7 xenograft, treatment week 6, listed as 5. P-GFLG-1892) was 43%, the “Volume (cm^3) of tumours” value (MCF-7 xenograft; [6]) was 4.327 ± 0.379 cm^3 and the “Weight (g) of tumours” value (MCF-7 xenograft; [6]) was 4.0 ± 0.9 g. For the same substance, the Inhibition % (MXT mouse mammary tumour; [7]) was 72%, the “Tumour volume as control (%)” value (MXT mouse mammary tumour; [7]) was 28% and the Inhibition % (MXT mouse mammary tumour; [8]) was 62%. The “Tumour volume as control (%)” value (MXT mouse mammary tumour; [8]) was 38%, the “Tumour volume (cm^3)” value (MXT mouse mammary tumour; day 9, 75 µg/day/animal s.c.) was 0.29 cm^3 and the “Tumour volume as control (%)” value (MXT mouse mammary tumour; day 9, 75 µg/day/animal s.c.) was 40%. For the same substance, the “Tumour volume (cm^3)” value (MXT mouse mammary tumour; day 11, 75 µg/day/animal s.c.) was 0.66 cm^3, the “Tumour volume as control (%)” value (MXT mouse mammary tumour; day 11, 75 µg/day/animal s.c.) was 36% and the “Tumour volume (cm^3)” value (MXT mouse mammary tumour; day 13, 75 µg/day/animal s.c.) was 0.91 cm^3. For the same substance, the “Tumour volume as control (%)” value (MXT mouse mammary tumour; day 13, 75 µg/day/animal s.c.) was 28%, the “Tumour volume (cm^3)” value (MXT mouse mammary tumour; day 17, 75 µg/day/animal s.c.) was 1.86 cm^3 and the “Tumour volume as control (%)” value (MXT mouse mammary tumour; day 17, 75 µg/day/animal s.c.) was 36%. The “Tumour volume (cm^3)” value (MXT mouse mammary tumour; day 18, 75 µg/day/animal s.c.) was 3.1 cm^3, the “Tumour volume as control (%)” value (MXT mouse mammary tumour; day 18, 75 µg/day/animal s.c.) was 42% and the “Tumour volume (cm^3)” value (MXT mouse mammary tumour; day 20, 75 µg/day/animal s.c.) was 3.61 cm^3. For the same substance, the “Tumour volume as control (%)” value (MXT mouse mammary tumour; day 20, 75 µg/day/animal s.c.) was 38%, the “Tumour volume (cm^3)” value (MXT mouse mammary tumour; day 24, 75 µg/day/animal s.c.) was 6.07 cm^3 and the “Tumour volume as control (%)” value (MXT mouse mammary tumour; day 24, 75 µg/day/animal s.c.) was 48%. For the same substance, the “Tumour volume (cm^3)” value (MXT mouse mammary tumour; day 26, 75 µg/day/animal s.c.) was 8.91 cm^3, the “Tumour volume as control (%)” value (MXT mouse mammary tumour; day 26, 75 µg/day/animal s.c.) was 64% and the tumour-free animals (MDA-MB-231 xenograft; MDA-MB-231 xenograft, end of the 6th week, first series) was “A tumour-free animal was found”. For the same substance, the Inhibition % (MDA-MB-231 xenograft; [9]) was 26.5%, the “Tumour volume as control (%)” value (MDA-MB-231 xenograft; [9]) was 73.5% and the Inhibition % (MDA-MB-231 xenograft; [10]) was 44%. The “Tumour volume as control (%)” value (MDA-MB-231 xenograft; [10]) was 56%, the “Tumour volume (cm^3)” value (MDA-MB-231 xenograft; [11]) was 0.15 cm^3 and the “Tumour volume as control (%)” value (MDA-MB-231 xenograft; [11]) was 100%. For the same substance, the “Tumour volume (cm^3)” value (MDA-MB-231 xenograft; [12]) was 0.21 cm^3, the “Tumour volume as control (%)” value (MDA-MB-231 xenograft; [12]) was 84% and the “Tumour volume (cm^3)” value (MDA-MB-231 xenograft; [13]) was 0.25 cm^3. The “Tumour volume as control (%)” value (MDA-MB-231 xenograft; [13]) was 79%, the “Tumour volume (cm^3)” value (MDA-MB-231 xenograft; [14]) was 0.27 cm^3 and the “Tumour volume as control (%)” value (MDA-MB-231 xenograft; [14]) was 74%. The “Tumour volume (cm^3)” value (MDA-MB-231 xenograft; [15]) was 0.34 cm^3, the “Tumour volume as control (%)” value (MDA-MB-231 xenograft; [15]) was 81% and the “Tumour volume (cm^3)” value (MDA-MB-231 xenograft; [16]) was 0.33 cm^3. The “Tumour volume as control (%)” value (MDA-MB-231 xenograft; [16]) was 75%, the “Tumour volume (cm^3)” value (MDA-MB-231 xenograft; [17]) was 0.33 cm^3 and the “Tumour volume as control (%)” value (MDA-MB-231 xenograft; [17]) was 58%. The “% Inhibition of colony formation” value ([2]; 10 µM) was 92%, the “% Inhibition of colony formation” value ([2]; 30 µM) was 100% and the “% Inhibition of colony formation” value ([3]; 10 µM) was 72%. For the same substance, the “% Inhibition of colony formation” value ([3]; 30 µM) was 100%, the “inhibition of colony formation” value ([3]; 30 to 50 µM) was 100% and the “% Inhibition of colony formation” value ([4]; 10 µM) was 86%. The “inhibition of colony formation” value ([4]; 30 to 50 µM) was 100%, the “% Inhibition of colony formation” value ([5]; 10 µM (active substance)) was 60% and the “% Inhibition of colony formation” value ([5]; 50 µM (active substance)) was 93%.
